Read-outs that look alike come from different tables or passages of the source.
Assays:
full-length human PLD2 = full-length human PLD2 (Homo sapiens (Human), UniProt O14939); experiment: Evaluation of human PLD2 enzyme inhibitory activity (Amplex Red / choline oxidase fluorescence); type: biochemical
How it was run: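 Released choline was read by Amplex Red fluorescence coupled to choline oxidase and HRP after a 60 min room-temperature reaction. Substrate was diheptanoyl phosphatidylcholine, added as a 6 mmol/L solution, and enzyme was FLAG-tagged full-length human PLD2 from Expi293F, added as a 6 nmol/L solution. Buffer was 50 mM HEPES pH 7.5 with 5% final DMSO.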

full-length human PLD1 = full-length human PLD1 (Homo sapiens (Human), UniProt Q13393); experiment: Evaluation of human PLD1 enzyme inhibitory activity (Amplex Red / choline oxidase fluorescence); type: biochemical
How it was run: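 Fluorescence read-out couples choline to Amplex Red via choline oxidase and peroxidase after a 60 min room-temperature reaction. Enzyme: FLAG-tagged full-length human PLD1 from Expi293F cells, anti-FLAG purified; substrate diheptanoyl phosphatidylcholine; HEPES pH 7.5 assay buffer with 0.01% NP-40, 0.1% BSA, 5% DMSO final.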

[1] = full-length human PLD2 enzyme, read-out: PLD2 IC50
[2] = full-length human PLD1 enzyme, read-out: PLD1 IC50

full-length human PLD2, sequence (O14939 whole entry): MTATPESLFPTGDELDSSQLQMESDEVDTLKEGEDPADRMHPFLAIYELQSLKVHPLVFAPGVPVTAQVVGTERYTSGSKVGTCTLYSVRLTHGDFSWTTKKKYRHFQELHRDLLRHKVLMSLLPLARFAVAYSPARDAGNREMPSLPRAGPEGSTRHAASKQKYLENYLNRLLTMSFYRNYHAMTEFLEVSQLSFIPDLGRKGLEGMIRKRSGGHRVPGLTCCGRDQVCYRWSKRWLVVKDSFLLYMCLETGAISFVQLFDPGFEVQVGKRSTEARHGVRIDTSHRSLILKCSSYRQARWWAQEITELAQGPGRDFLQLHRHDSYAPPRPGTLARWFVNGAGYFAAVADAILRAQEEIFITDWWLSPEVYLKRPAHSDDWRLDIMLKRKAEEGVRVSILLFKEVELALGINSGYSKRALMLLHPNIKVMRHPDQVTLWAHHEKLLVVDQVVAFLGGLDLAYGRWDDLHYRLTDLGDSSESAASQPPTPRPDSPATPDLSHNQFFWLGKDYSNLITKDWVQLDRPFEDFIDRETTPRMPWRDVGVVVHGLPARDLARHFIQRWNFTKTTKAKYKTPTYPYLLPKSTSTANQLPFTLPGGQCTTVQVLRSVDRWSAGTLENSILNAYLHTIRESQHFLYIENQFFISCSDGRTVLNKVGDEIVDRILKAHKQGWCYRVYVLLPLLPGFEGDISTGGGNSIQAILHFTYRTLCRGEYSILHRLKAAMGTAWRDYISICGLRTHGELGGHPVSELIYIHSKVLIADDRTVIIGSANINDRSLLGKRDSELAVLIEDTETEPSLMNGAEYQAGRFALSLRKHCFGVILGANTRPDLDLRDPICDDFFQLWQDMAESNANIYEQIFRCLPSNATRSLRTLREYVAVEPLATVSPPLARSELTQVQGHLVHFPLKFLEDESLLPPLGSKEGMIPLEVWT
full-length human PLD1, sequence (Q13393 other isoform, or with tags, fused parts or gaps): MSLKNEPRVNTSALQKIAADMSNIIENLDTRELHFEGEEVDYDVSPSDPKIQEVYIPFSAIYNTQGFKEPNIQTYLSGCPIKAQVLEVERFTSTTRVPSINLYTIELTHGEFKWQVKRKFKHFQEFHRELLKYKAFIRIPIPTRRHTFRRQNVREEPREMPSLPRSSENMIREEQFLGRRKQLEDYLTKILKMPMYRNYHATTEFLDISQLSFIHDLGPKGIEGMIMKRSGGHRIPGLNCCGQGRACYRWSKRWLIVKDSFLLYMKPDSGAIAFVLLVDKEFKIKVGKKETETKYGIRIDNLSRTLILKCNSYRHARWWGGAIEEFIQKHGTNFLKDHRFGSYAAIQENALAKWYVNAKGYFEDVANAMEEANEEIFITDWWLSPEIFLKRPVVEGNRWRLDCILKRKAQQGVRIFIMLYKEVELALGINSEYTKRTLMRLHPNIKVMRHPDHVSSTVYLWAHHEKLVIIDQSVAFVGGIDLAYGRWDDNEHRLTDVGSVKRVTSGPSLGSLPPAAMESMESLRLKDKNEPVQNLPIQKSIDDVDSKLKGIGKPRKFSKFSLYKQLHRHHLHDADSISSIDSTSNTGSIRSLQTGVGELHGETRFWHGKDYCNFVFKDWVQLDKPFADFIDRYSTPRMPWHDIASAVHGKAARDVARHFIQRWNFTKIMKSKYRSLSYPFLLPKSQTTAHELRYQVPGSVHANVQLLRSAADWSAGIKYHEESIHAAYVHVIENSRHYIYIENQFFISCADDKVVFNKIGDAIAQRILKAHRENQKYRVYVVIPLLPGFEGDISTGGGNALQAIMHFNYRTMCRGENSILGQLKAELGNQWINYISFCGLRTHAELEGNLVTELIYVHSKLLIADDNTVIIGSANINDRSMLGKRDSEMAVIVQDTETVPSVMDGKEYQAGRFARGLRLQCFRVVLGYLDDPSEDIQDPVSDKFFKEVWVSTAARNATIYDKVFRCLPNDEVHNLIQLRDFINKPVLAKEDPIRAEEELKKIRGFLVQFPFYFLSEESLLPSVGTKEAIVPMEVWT

SMILES	IC50 (full-length human PLD2; [1]) [nM]	IC50 (full-length human PLD1; [2]) [nM]	IC50 (full-length human PLD2; column 2 of continuation tables 2-12 to 2-14, read-out: human PLD2 enzyme inhibitory activity IC50) [nM]	IC50 (full-length human PLD1; column 1 of continuation tables 2-12 to 2-14, read-out: human PLD1 enzyme inhibitory activity IC50) [nM]
C[C@@H](C[C@H]1CC[C@]2(CC1)OC(=O)NN=C2c1ccc(S(C)(=O)=O)cc1Cl)NC(=O)c1cc2ccccc2o1 [Example 53]	< 10	19		
Cc1cc(C(=O)N[C@@H](C)CN2C[C@H]3CC[C@@H](C2)[C@@]32OC(=O)NN=C2c2ccc(F)cc2Cl)[nH]n1 [Example 197]	< 10	26		
Cc1cc(N2CCOCC2)ccc1C1=NNC(=O)O[C@]12CC[C@@H](C[C@H](C)NC(=O)N1CCOCC1)CC2 [Example 200]	82	103		
CNC(=O)C(=O)N[C@@H](C)C[C@H]1CC[C@]2(CC1)OC(=O)NN=C2c1cc(Cl)ccc1I [Example 2-044]	< 10	< 10		
CNC(=O)C(=O)N[C@@H](C)C[C@H]1CC[C@]2(CC1)OC(=O)NN=C2c1cnc(N2CC(C(F)(F)F)C2)cc1C [Example 192]	< 10	21		
Cc1cc(C(=O)N[C@@H](C)CN2CCC3(CC2)OC(=O)NN=C3c2cccc(C(F)(F)F)c2Br)[nH]n1 [Example 2-052]	< 10	21		
CNC(=O)C(=O)N[C@@H](C)C[C@H]1CC[C@]2(CC1)OC(=O)NN=C2c1cnc(O)cc1C [Example 162]	536	322		
Cc1cc(C(=O)N[C@@H](C)C[C@]2(O)CC[C@@]3(CC2)OC(=O)NN=C3c2ccc(F)cc2Br)[nH]n1 [Example 322, N—((S)-1-(trans-5-(2-bromo-4-fluorophenyl)-9-hydroxy-2-oxo-1-oxa-3,4-diazaspiro[5,5]undec-4-en-9-yl)propan-2-yl)-3-methyl-1H-pyrazole-5-carboxamide]	< 10	30		
CNC(=O)C(=O)N[C@@H](C)CN1CCC2(CC1)OC(=O)NN=C2c1cccc(F)c1Br [Example 2-030]	18	31		
C[C@@H](C[C@H]1CC[C@]2(CC1)OC(=O)NN=C2c1ccc(OC(F)F)cc1Br)NC(=O)c1ccn[nH]1 [Example 143]	25	27		
CC(=O)N[C@@H](C)C[C@H]1CC[C@]2(CC1)OC(=O)NN=C2c1ccc(OC(F)F)cc1Br [Example 141]	164	141		
CNC(=O)C(=O)N[C@@H](C)C[C@H]1CC[C@]2(CC1)OC(=O)NN=C2c1cnc(C(F)(F)F)cc1C [Example 174]	17	42		
Cc1cc(F)ccc1C1=NNC(=O)O[C@]12CC[C@@H](C[C@H](C)NC(=O)N1CC3CCCCC3C1)CC2 (mixture of isomers) [Example 150]	640	880		
C[C@@H](C[C@H]1CC[C@]2(CC1)OC(=O)NN=C2c1ccc(F)cc1Br)NC(=O)c1cc(C(F)(F)F)n[nH]1 [Example 72]	24	34		
CNC(=O)C(=O)N[C@@H](C)C[C@H]1CC[C@]2(CC1)OC(=O)NN=C2c1ncccc1C [Example 147]	32	32		
Cc1cc(Br)ccc1C1=NNC(=O)O[C@]12CC[C@@H](C[C@H](C)NC(=O)C(=O)NC1CC1)CC2 [Example 209]	18	18		
CNC(=O)C(=O)N[C@@H](C)C[C@H]1CC[C@]2(CC1)OC(=O)NN=C2c1cc(Cl)ccc1Cl [Example 314]	< 10	< 10		
CNC(=O)C(=O)N[C@@H](C)C[C@H]1CC[C@]2(CC1)OC(=O)NN=C2c1ccc(Br)cc1C [Example 161]	13	20		
CNC(=O)C(=O)N[C@@H](C)C[C@H]1CC[C@]2(CC1)OC(=O)NN=C2c1ccc(C(C)(C)O)cc1C [Example 178]	17	14		
Cc1ccncc1C1=NNC(=O)O[C@]12CC[C@@H](C[C@H](C)NC(=O)c1cc3ccccc3o1)CC2 [Example 114]	< 10	13		
CNC(=O)C(=O)N[C@@H](C)C[C@H]1CC[C@]2(CC1)OC(=O)NN=C2c1ccc(F)cc1OC [Example 54]	< 10	20		
C[C@@H](C[C@H]1CC[C@]2(CC1)OC(=O)NN=C2c1ccc(OCC(C)(C)O)cc1Br)NC(=O)c1cc2ccccc2o1 [Example 132]	< 10	14		
CNC(=O)C(=O)N[C@@H](C)C[C@H]1CC[C@]2(CC1)OC(=O)NN=C2c1cnc(N2CC(C(F)F)C2)cc1C [Example 227]	< 10	19		
CNC(=O)C(=O)N[C@@H](C)C[C@]1(O)CC[C@]2(CC1)OC(=O)NN=C2c1ccc(F)cc1Br [Example 319]	744	2090		
CNC(=O)C(=O)N[C@@H](C)C[C@H]1CC[C@]2(CC1)OC(=O)NN=C2c1cnc(N2C[C@@H]3C[C@H]2CO3)cc1C [Example 268]	< 10	30		
CNC(=O)C(=O)N[C@@H](C)C[C@H]1CC[C@]2(CC1)OC(=O)NN=C2c1cnc(Cl)cc1C [Example 158]	15	27		

SMILES	IC50 (full-length human PLD2; [1]) [nM]	IC50 (full-length human PLD1; [2]) [nM]	IC50 (full-length human PLD2; column 2 of continuation tables 2-12 to 2-14, read-out: human PLD2 enzyme inhibitory activity IC50) [nM]	IC50 (full-length human PLD1; column 1 of continuation tables 2-12 to 2-14, read-out: human PLD1 enzyme inhibitory activity IC50) [nM]
C[C@@H](C[C@H]1CC[C@]2(CC1)OC(=O)NN=C2c1ccc(F)cc1Br)NC(=O)C1(F)CC1 [Example 35]	367	257		
CCCC(=O)N[C@@H](C)C[C@H]1CC[C@]2(CC1)OC(=O)NN=C2c1ccc(F)cc1Br [Example 42]	261	247		
Cc1cc(C(=O)NC(C)CN2CCC3(CC2)OC(=O)NN=C3c2cccc(F)c2Br)[nH]n1 (centres unmarked) [Example 2-031]	< 10	19		
C[C@@H](C[C@H]1CC[C@]2(CC1)OC(=O)NN=C2c1ccc(F)cc1)NC(=O)c1cc2ccccc2o1 [Example 7]	44	30		
CNC(=O)C(=O)N[C@@H](C)C[C@H]1CC[C@]2(CC1)OC(=O)NN=C2c1cc(OC(F)(F)F)ccc1Br [Example 294]	< 10	11		
CNC(=O)C(=O)N[C@@H](C)C[C@H]1CC[C@]2(CC1)OC(=O)NN=C2c1ccc(Br)cc1 [Example 23]	51	39		
C[C@@H](CN1CCC2(CC1)OC(=O)NN=C2c1ccc(F)cc1Cl)NC(=O)c1cc(C(F)(F)F)on1 [Example 99]	373	241		
CNC(=O)C(=O)N[C@@H](C)CN1CCC2(CC1)OC(=O)NN=C2c1ccc(F)cc1Cl [Example 90]	18	45		
C[C@@H](C[C@H]1CC[C@]2(CC1)OC(=O)NN=C2c1ccc(F)cc1Br)NC(=O)CCS(C)(=O)=O [Example 43]	184	221		
C[C@@H](CN1CCC2(CC1)OC(=O)NN=C2c1ccc(F)cc1Br)NC(=O)c1cnn(C)c1 [Example 254]	< 10	29		
CNC(=O)C(=O)N[C@@H](C)C[C@H]1CC[C@]2(CC1)OC(=O)NN=C2c1cnc(I)cc1C [Example 172]	12	23		
[2H]C([2H])([2H])NC(=O)C(=O)N[C@@H](C)CN1CCC2(CC1)OC(=O)NN=C2c1cc(C#N)ccc1Br [Example 2-001]	< 10	41		
C[C@@H](CN1CCC2(CC1)OC(=O)NN=C2c1ccc(F)cc1Cl)NC(=O)c1cc(C(F)(F)F)[nH]n1 [Example 100]	33	41		
Cc1cc(C(=O)N[C@@H](C)C[C@H]2CC[C@]3(CC2)OC(=O)NN=C3c2cnc(N3CC(F)(F)C3)cc2C)[nH]n1 [Example 273]	< 10	19		
Cc1ccncc1C1=NNC(=O)O[C@]12CC[C@@H](C[C@H](C)NC(=O)c1cc(Cl)no1)CC2 [Example 113]	13	17		
CNC(=O)C(=O)N[C@@H](C)C[C@H]1CC[C@]2(CC1)OC(=O)NN=C2c1ccc(C#N)c(C)c1 [Example 205]	102	35		
[2H]C([2H])([2H])NC(=O)C(=O)N[C@@H](C)C[C@]1(C#N)CC[C@@]2(CC1)OC(=O)NN=C2c1cccc(C(F)(F)F)c1Br [Example 2-118]			< 10	19
Cc1cc(C(=O)N[C@@H](C)C[C@H]2CC[C@]3(CC2)OC(=O)NN=C3c2cc(OCC(F)(F)F)ccc2Br)[nH]n1 [Example 298]	< 10	15		
CNC(=O)C(=O)N[C@@H](C)C[C@H]1CC[C@]2(CC1)OC(=O)NN=C2c1ccc(C(F)(F)F)cc1C [Example 181]	< 10	13		
CSc1ccc(C2=NNC(=O)OC23CCN(C[C@H](C)NC(=O)c2cc4cc(F)ccc4o2)CC3)c(Cl)c1 [Example 115]	< 10	15		
Cc1cc(C(=O)N[C@@H](C)C[C@H]2CC[C@]3(CC2)OC(=O)NN=C3c2cnc(Cl)cc2N2CCOCC2)[nH]n1 [Example 225]	203	513		
C[C@@H](C[C@H]1CC[C@]2(CC1)OC(=O)NN=C2c1cn(C)nc1I)NC(=O)c1cc(Cl)no1 [Example 2-046]	118	24		
CNC(=O)C(=O)N[C@H](CN1CCC2(CC1)OC(=O)NN=C2c1cc(C#N)ccc1Br)C(F)(F)F [Example 2-017]	45	99		
CNC(=O)C(=O)N[C@@H](C)CN1CCC2(CC1)OC(=O)NN=C2c1ccc(C#N)cc1Br [Example 206]	13	36		
Cc1cc(C(=O)N[C@@H](C)CN2CC[C@]3(C[C@@H]2C)OC(=O)NN=C3c2ccc(C#N)cc2Cl)[nH]n1 [Example 281]	232	169		
C[C@@H](C[C@H]1CC[C@]2(CC1)OC(=O)NN=C2c1ccc(F)cc1C1CC1)NC(=O)c1cc(Cl)no1 [Example 65]	< 10	< 10		

From patent publication US20240101572A1, “DIHYDROOXADIAZINONE COMPOUND AND PHARMACEUTICAL USE THEREOF” (Japan Tobacco Inc., priority 2022, published 2024)
